Target: Induced myeloid leukemia cell differentiation protein Mcl-1 (Homo sapiens, UniProt Q07820)
Assay: Binding affinity to MCL1 (unknown origin) assessed as inhibition of Mcl1-FAMbid protein-protein interaction after 1 min by fluorescence polarization assay

Sequence of Induced myeloid leukemia cell differentiation protein Mcl-1 (Q07820 whole entry): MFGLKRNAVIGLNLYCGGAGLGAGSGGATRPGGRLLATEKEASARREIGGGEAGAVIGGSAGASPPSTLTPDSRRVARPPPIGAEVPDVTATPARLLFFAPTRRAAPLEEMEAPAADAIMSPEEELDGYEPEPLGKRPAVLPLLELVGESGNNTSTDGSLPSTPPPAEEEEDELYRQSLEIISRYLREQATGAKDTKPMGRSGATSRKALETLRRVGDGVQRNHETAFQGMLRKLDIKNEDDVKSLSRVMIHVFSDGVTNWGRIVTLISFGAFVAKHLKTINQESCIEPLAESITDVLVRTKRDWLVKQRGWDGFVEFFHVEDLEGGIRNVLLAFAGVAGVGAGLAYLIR

## O=C(O)c1cc2ccccc2n1S(=O)(=O)c1ccc(OCc2cccc(Cl)c2)cc1
  Kd: 480 nM

From ChEMBL document CHEMBL4433198, “Fragment-to-Lead Medicinal Chemistry Publications in 2017” (J Med Chem, 2019)
